Source: US20240352070A1, “NOVEL CATHEPSIN INHIBITORS” (Ecole Polytechnique Federale de Lausanne (EPFL), priority 2021, published 2024)
Blank lines part the entries; values can stand above or below the compound they belong to. Numbered stars: 1 amine (or outer) side, 2 acyl side, 3 side chain; on linkers, the order of the positions; unused ones are H or OH. Square brackets hold non-standard residues; d marks the D form. Peptide text beside a SMILES is read from it. Trp(3a,7a-dihydro) = N[C@@H](CC1=CNC2C=CC=CC12)C(=O)O; Butenoyl(2E,4-amino) = O=C(/C=C/CN[*:1])[*:2]; Dap(N3) = [N-]=[N+]=NC[C@H](N)C(=O)O; Pra = C#CC[C@H](N)C(=O)O

Tests used:
[1] = target: T1, CTSS wild-type (Homo sapiens, UniProt P25774); assay: FRET assay to test CTSS activity (wild-type); format: biochemical
T1 construct: made in house; host or cells: HEK293
T1 sequence (P25774 115-331): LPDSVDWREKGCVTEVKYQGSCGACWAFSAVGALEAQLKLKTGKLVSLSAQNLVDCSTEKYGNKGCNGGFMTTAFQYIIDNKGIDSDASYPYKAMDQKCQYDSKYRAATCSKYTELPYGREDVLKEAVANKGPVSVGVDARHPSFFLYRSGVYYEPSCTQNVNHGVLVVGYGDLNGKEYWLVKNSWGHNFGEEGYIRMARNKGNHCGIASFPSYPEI
Text: (§1) Cathepsins protein expression and purification. For CTSS purification, the human CTSS sequence depleted of the lysosomal localization signal (amino acids 17 to 331) was amplified from pLVX plasmids expressing WT or Y132D CTSS using the following primers: […]
The PCR products were digested using Agel and Kpn1 restriction enzymes (NEB, cat #R3552S and #R3142S), then cloned in pHLsec plasmids carrying a secretion signal at the N-terminal of the MCS and a His-tag sequence at the C-terminal of the MCS. pHLsec-CTSS plasmids were transfected into HEK293 cells with PEI (polyethyleneimine) in presence of VPA (valproic acid). Proteins were purified from the supernatant using a 5 ml His-Trap FF column on an ÄKTA pure system (GE healthcare). Bound proteins were eluted using a 300 mM imidazole solution. Concentrated proteins were further purified by size exclusion chromatography on a HiLoad® 16/600 Superdex® 75 pg column (GE Healthcare) using PBS as mobile phase. Purified proteins were quantified by Nanodrop, diluted in a buffer containing 12.5 mM MES, 75 mM NaCl and 50% glycerol at ph 6.5 and stored at −20° C. […]
FRET (Fluorescence Resonance Energy Transfer) assay to test CTSS activity. […] The peptide was added to the activated CTSS (50 ul/well) and fluorescent emission (MCA) was measured with SpectraMax iD3 (Molecular Devices) in kinetic mode for three hours (excitation: 330 nm, emission: 390 nm). […]

[2] = target: T2, CTSS Y132D (Homo sapiens, UniProt P25774, Y132D); assay: FRET assay with mutated CTSS Y132D; format: biochemical
T2 construct: made in house; host or cells: HEK293
T2 sequence (P25774 115-331 Y132D): as the sequence (P25774 115-331) above, with Y18D counted along it
Text: as §1
The PCR products were digested using Agel and Kpn1 restriction enzymes (NEB, cat #R3552S and #R3142S), then cloned in pHLsec plasmids carrying a secretion signal at the N-terminal of the MCS and a His-tag sequence at the C-terminal of the MCS. pHLsec-CTSS plasmids were transfected into HEK293 cells with PEI (polyethyleneimine) in presence of VPA (valproic acid). Proteins were purified from the supernatant using a 5 ml His-Trap FF column on an ÄKTA pure system (GE healthcare). Bound proteins were eluted using a 300 mM imidazole solution. Concentrated proteins were further purified by size exclusion chromatography on a HiLoad® 16/600 Superdex® 75 pg column (GE Healthcare) using PBS as mobile phase. Purified proteins were quantified by Nanodrop, diluted in a buffer containing 12.5 mM MES, 75 mM NaCl and 50% glycerol at ph 6.5 and stored at −20° C. Purified CTSB and CTSH were purchased from RndSystems.
FRET (Fluorescence Resonance Energy Transfer) assay to test CTSS activity. For FRET experiments, CTSS-His was diluted to 10 μg/mL in assay buffer (50 mM NaOAc, 5 mM DTT, 250 mM NaCl), at pH 4.5 and incubated at 37° C. for 90 minutes to allow auto-activation. The protein was then diluted to 0.5 ng/ul in assay buffer and plated in 96-well plates (50 ul/well). […] The peptide was added to the activated CTSS (50 ul/well) and fluorescent emission (MCA) was measured with SpectraMax iD3 (Molecular Devices) in kinetic mode for three hours (excitation: 330 nm, emission: 390 nm).
It was recently reported that 5.7% of lymphoma patients harbour a specific gain of function mutation changing the tyrosine 132 in aspartate (Y132D) or asparagine (Y132N). […] This was measured through a FRET assay in which the inhibitor was incubated with CTSS Y132D. […]

[3] = target: T3, cathepsin B (CTSB) (Homo sapiens, UniProt P07858); assay: Specificity assay: FRET assay for CTSB activity; format: biochemical
T3 construct: purchased RndSystems
Experimental: (§2) Specificity assay. […] First, we used specific conditions to activate the enzymes. CTSB was diluted in a specific activation buffer (MES 25 mM, DTT 5 mM, pH 5) at 10 ug/ml, incubated at 37° C. for 2 h and then diluted to 1 ug/ml in assay buffer (MES 25 mM, pH 5) for the FRET assay. CTSH was diluted in a different activation buffer (MES 50 mM, CaCl2) 10 mM, NaCl 150 mM, pH 6.5) at 200 ug/ml. In addition, as co-stimulatory activator we used thermolysin diluted at 100 ug/ml in activation buffer and then mixed with an equal volume of the diluted CTSH. The solution was incubated for 1 h at room temperature and then we added 2 mM Phosphoramidon diluted in assay buffer (MES 50 mM, pH 6.5) and we incubated the mix for 10 minutes at room temperature. Lastly, we added an equal volume of assay buffer containing 20 mM DTT and incubated the solution for 5 minutes at room temperature. For the FRET assay, we diluted both CTSH, and CTSB at 1 ug/ml in their specific assay buffer and incubated them with a specific substrate. We used as substrate KPPKPVSD in CTSB FRET assays and KLRMKLPKP in CTSH FRET assays and we tested two doses of our P3 inhibitor (20 uM and 50 uM). Fluorescence emission was measured with SpectraMax iD3 (Molecular Devices) in kinetic mode over three hours (excitation: 330 nm, emission: 390 nm).

[4] = target: T4, CTSB in MCF-7 cells (Homo sapiens, UniProt P07858); assay: Quenched activity-based probe (qABP) assay in MCF-7 cells; format: cell-based; conditions: 16 hours, 500 ug/ml APeC, compared to PBS or antibody mixed to C10 without linker
T4 construct: endogenous in cells; host or cells: MCF-7
Experimental: FIG. 8. Output of quenched activity-based probe (qABP) assay. The presence of a dark band corresponds to the detection of a strong activity of CTSB. Absence of a band means complete CTSB inhibition. APeC=antibody-peptide conjugate. Ab=antibody.
(§3) CD74 accumulation assay for efficacy assessment. To test the efficacy of our APeCs, 2×10^5 WSU-DLCL2 or Raji cells were incubated for two days with 300 or 500 ug/ml of APeC, in RPMI 1640 medium (ThermoFisher Scientific) supplemented with 10% FBS and 1% Penicillin-Streptomycin (ThermoFisher Scientific, cat. no. 15140122). After the first 24 h treatment, the cells were washed and resuspended in fresh APeC at the same treatment concentration. As negative controls, the same number of cells was either treated with PBS or with 300 ug/ml of the corresponding antibody previously incubated with C10 inhibitor in absence of DBCO-maleimide linker. Each treatment condition was tested in duplicates. […] Cells were then stained with anti-human CD74 antibody (BioLegend, cat. no. 357604) and fluorescence was measured by flow cytometry using BD LSRFortessa instrument (BD Biosciences). […] The gel was analysed by scanning in-gel fluorescence on a Typhoon Trio flat-bed laser scanner (GE Healthcare), and protein loading was confirmed by staining with Coomassie® Brilliant Blue R-250 (Schmidt GmbH). […]

[5] = target: T5, cathepsin H (CTSH) (Homo sapiens, UniProt P09668); assay: Specificity assay: FRET assay for CTSH activity; format: biochemical; conditions: at 20 uM or 50 uM, 180 minutes
T5 construct: purchased RndSystems
T5 sequence (P09668 116-335 limits assumed, other chains not shown): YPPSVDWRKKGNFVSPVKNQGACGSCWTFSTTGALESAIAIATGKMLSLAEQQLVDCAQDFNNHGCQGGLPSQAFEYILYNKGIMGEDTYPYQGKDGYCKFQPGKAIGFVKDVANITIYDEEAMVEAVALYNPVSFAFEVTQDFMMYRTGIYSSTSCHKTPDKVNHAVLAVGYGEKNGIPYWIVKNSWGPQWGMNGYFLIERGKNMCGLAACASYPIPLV
Experimental: as §2

[6] = test system: CTSS in WSU-DLCL2 cells; assay: CD74 accumulation assay in WSU-DLCL2 cells; format: cell-based, human; conditions: 48 hours, compared to PBS or antibody mixed to C10 in absence of linker
Experimental: (§4) FIG. 7. A-B CD74 accumulation after 48 hours-long anti-CD22 APeC treatment in WSU cells (A) and Raji cells (B). C-D CD74 accumulation after 48 hours-long anti-CD79 APeC treatment in WSU cells (C) and Raji cells (D). Single-cell fluorescence was measured by flow cytometry. CTSS inhibitor Petesicatib was used as positive control.
as §3, with “linker.” for “linker. Each treatment condition was tested in duplicates.”

[7] = test system: CTSS in Raji cells; assay: CD74 accumulation assay in Raji cells; format: cell-based, human; conditions: 48 hours, compared to PBS or antibody mixed to C10 in absence of linker
Experimental: as §4
as §3, with “linker.” for “linker. Each treatment condition was tested in duplicates.”

[8] = target: T6, CTSS in primary human B-cells (Homo sapiens, UniProt P25774); assay: qABP assay on primary human B-cells; format: cell-based; conditions: 2 different donors
T6 construct: endogenous in cells; host or cells: primary human B-cells (2 donors)
T6 sequence (P25774 115-331): as the sequence (P25774 115-331) above
Text: FIG. 11. Output of quenched activity-based probe (qABP) assay on primary human B-cells. The presence of a dark band at a precise molecular weight indicates to the detection of a strong activity of the corresponding cathepsin. Absence of a band means complete cathepsin inhibition. APeC=antibody-peptide conjugate. ab=antibody.

[9] = test system: WSU-DLCL2 cells; assay: Internalization assay by flow cytometry; format: cell-based; conditions: 100 ug/ml
Experimental: FIG. 6. A-B Results of internalization assay performed by incubating WSU-DLCL2 cells with the Epr-AF488 antibody for 3 hours at 37° C. (A) or 4° C. (B). Single-cell fluorescence was measured by flow cytometry.
Internalization assay. To test the internalization of the conjugated Epratuzumab antibody, 2×10^5 WSU-DLCL2 cells were incubated at 37° C. for 3 hours with 100 ug/ml of Epr-AF488 in PBS. As negative control, the same number of cells was incubated with 100 ug/ml of Epratuzumab previously incubated with AF488 dye in absence of DBCO-maleimide linker. Each experimental condition was tested in duplicates. Cells were then washed 3 times with PBS and 1 ul of anti-AF488 quencher antibody (ThermoFisher Scientific, A-11094) was added to half of the samples. Samples' fluorescence was measured by flow cytometry using Millipore Guava EasyCyte HT instrument (MilliporeSigma).

[10] = at 20 uM and at 50 uM, FRET, 180 minutes

Compound: CC(C)C[C@H](NC(=O)[C@H]1O[C@@H]1C(=O)O)C(=O)NCCCCN=C(N)N [E64]
residual CTSB activity [4]: inhibited CTSB activity as expected

Compound: C#CC[C@H](NC(C)=O)C(=O)N[C@@H](CCCCN)C(=O)N[C@@H](CC(C)C)C(=O)N[C@@H](CCCNC(=N)N)C(=O)N[C@@H](CCSC)C(=O)NC/C=C/C(=O)N1CCC[C@H]1C(=O)N[C@@H](CCCCN)C(=O)N[C@@H](CC(=O)O)C(N)=O [P3, KLRM(Y)PKD] (Ac-[Pra]KLRM[Butenoyl(2E,4-amino)]PKD-NH2)
inhibition of wild-type CTSS [1, 10]: able to inhibit
inhibition of mutant form of CTSS (Y132D) [2, 10]: able to inhibit
inhibition of CTSH [5]: not significantly inhibited
inhibitory activity on CTSB [3]: some inhibitory activity

Compound: Cn1cc(-c2ccc(S(=O)(=O)[C@@H]3C[C@@H](C(=O)NC4(C#N)CC4)N(C(=O)C4(C(F)(F)F)CC4)C3)c(C(F)(F)F)c2)cn1 [Petesicatib]
CD74 accumulation [6]: lower than what we obtained with lower doses of our APeCs
CD74 accumulation [7]: lower than what we obtained with lower doses of our APeCs
CTSS inhibition (qABP band) [8]: comparable

Compound: Epr-AF488: Epratuzumab antibody conjugated with AlexaFluor-488 azide-dye instead of C10
internalization by lymphoma cells (inaccessible to quencher antibody) ([9]; 3 hours at 37° C.): internalized
binding to lymphoma cells ([9]; 3 hours, flow cytometry): still able to bind lymphoma cells

Further lines, results first:

IC50 ([1]; FRET assay, dose-response, 50 minutes of incubation, wild-type CTSS): 49.3 nM
inhibition at 0.5 µM ([2]; at 500 nM, 50 minutes of incubation, read-out: reduction of CTSS Y132D activity (inhibition efficiency)): > 90%
reduction of CTSS Y132D activity ([2]; tested at 50 nM, 50 minutes of incubation): more than 50%
Compound: CSCC[C@H](NC(=O)[C@H](CCCNC(=N)N)NC(=O)[C@H](Cc1c[nH]cn1)NC(=O)[C@H](CCCCN)NC(=O)[C@H](CN=[N+]=[N-])NC(C)=O)C(=O)NC/C=C/C(=O)N[C@H](C(=O)N[C@@H](CCSC)C(=O)N[C@@H](Cc1c[nH]c2ccccc12)C(N)=O)C(C)C [C10, KHRM(Y)VMW] (Ac-[Dap(N3)]KHRM[Butenoyl(2E,4-amino)]VMW-NH2)

IC50 ([3]; dose-response, 50 minutes of incubation): 61.9 nM
Compound: CSCC[C@H](NC(=O)[C@H](CC1=CNC2C=CC=CC12)NC(=O)/C=C/CNC(=O)[C@H](Cc1ccc(O)cc1)NC(=O)[C@H](CCCNC(=N)N)NC(=O)[C@H](CCCNC(=N)N)NC(=O)[C@H](CCCCN)NC(=O)[C@H](CN=[N+]=[N-])NC(C)=O)C(=O)N[C@@H](CC1=CNC2C=CC=CC12)C(N)=O (some centres unmarked) [D5, KRRY(Y)WMW] (Ac-[Dap(N3)]KRRY[Butenoyl(2E,4-amino)][Trp(3a,7a-dihydro)]M[Trp(3a,7a-dihydro)]-NH2)
